Results published in patent publication US8486996B2, “Aroylfuranes and aroylthiophenes” (Basilea Pharmaceutica AG, priority 2006, dated 2013).
Like-named read-outs stand apart in the source and are kept apart here.

Key:
Assay type in all cases: cell-based
[1] = Hoechst 33342 nuclear staining (48 h read-out)
How it was run: (§1)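 Adherent cells pre-spread 24 h before dosing, suspension cells dosed at seeding; compounds at 0.001 μM-10 μM final, 48 h at culture conditions. Hoechst 33342 (2-5 μg/ml) added for 30 min, then fluorescence microscopy scoring of apoptotic nuclear fraction and apoptosis-specific morphology, reported as scores A-D.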

[2] = system: tumor cells; assay: Hoechst 33342 nuclear staining (48 h read-out)
How it was run: as §1

[3] = MTS proliferation assay (72 h read-out); settings: MRC5 cells
How it was run: (§2)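 Viability was read by MTS absorbance at 492 nm after 3 h with reagent. Before that, cells plated a day earlier at 1.5×10^3–10^4 per well had been incubated with test compound at final concentrations of 0.001–10 μM for 72 h; activity is given as category scores A–D.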

[4] = system: tumor cells; assay: MTS proliferation assay (72 h read-out)
How it was run: as §2

[5] = Mitochondrial membrane potential, JC-1 (read-out 48 h); settings: PBL, JC-1, 48 h
How it was run: (§3)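 Tumor cells were treated with test compounds (adherent cells after 24 h of attachment, suspension cells immediately), medium holding up to 5% DMSO. After 48 h, JC-1 (2-5 μg/ml in added medium) was applied for 30 min. Fluorescence microscopy (FITC/TRITC filters) scored the fraction of cells with dissipated mitochondrial membrane potential as categories A-D.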

[6] = system: tumor cells; assay: as above; settings: JC-1, 48 h
How it was run: as §3

[7] = MRC5 cells, read-out: Hoechst 33342 nuclear staining EC50, MRC5
[8] = PBL, read-out: Hoechst 33342 nuclear staining EC50, PBL
[9] = HeLa cells, read-out: Hoechst 33342 nuclear staining EC50, HeLa
[10] = Jily cells, read-out: Hoechst 33342 nuclear staining EC50, Jily
[11] = Jurkat cells, read-out: Hoechst 33342 nuclear staining EC50, Jurkat
[12] = HT1080 cells, read-out: MTS proliferation assay IC50, HT1080
[13] = HeLa cells, read-out: MTS proliferation assay IC50, HeLa
[14] = Jily cells, read-out: MTS proliferation assay IC50, Jily
[15] = Jurkat cells, read-out: MTS proliferation assay IC50, Jurkat
[16] = HeLa cells, read-out: Mitochondrial membrane potential (read-out 48 h) HeLa
[17] = Jily cells, read-out: Mitochondrial membrane potential (read-out 48 h) Jily
[18] = Jurkat cells, read-out: Mitochondrial membrane potential (read-out 48 h) Jurkat
[19] = MCF7 cells, read-out: Mitochondrial membrane potential (read-out 48 h) MCF7

SMILES	EC50 [1, 7] [nM]	EC50 [1, 8] [nM]	EC50 [2, 9] [nM]	EC50 [2, 10] [nM]	EC50 [2, 11] [nM]	IC50 [3] [nM]	IC50 [4, 12] [nM]	IC50 [4, 13] [nM]	IC50 [4, 14] [nM]	IC50 [4, 15] [nM]	EC50 [5] [nM]	EC50 [6, 16] [nM]	EC50 [6, 17] [nM]	EC50 [6, 18] [nM]	EC50 [6, 19] [nM]
Nc1c(C(=O)c2cccnc2N2CCCNCC2)oc2ccc(Cl)cc12 [Example 84]	> 1000	> 1000	> 1000	> 1000	> 1000	> 1000	> 1000	> 1000	> 1000	> 1000	> 1000	> 1000	> 1000	> 1000	> 1000
CN1CCN(c2ncccc2C(=O)c2oc3ccc(Cl)cc3c2N)CC1 [Example 85]	> 1000	> 1000	> 1000	100 to 1000	100 to 1000	> 1000	> 1000	> 1000	100 to 1000	100 to 1000	> 1000	> 1000	100 to 1000	100 to 1000	> 1000
Nc1c(C(=O)c2cccnc2N2CCC(O)CC2)oc2ccc(Cl)cc12 [Example 86]	> 1000	> 1000	> 1000	> 1000	> 1000	> 1000	> 1000	> 1000	100 to 1000	100 to 1000	> 1000	> 1000	> 1000	> 1000	> 1000
COc1ccc2oc(C(=O)c3cccnc3N3CCCC(C)C3)cc2c1 (stereo not drawn) [Example 87]	100 to 1000	> 1000	100 to 1000	100 to 1000	100 to 1000	10 to 100	10 to 100	10 to 100	10 to 100	< 10	> 1000	100 to 1000	100 to 1000	100 to 1000	100 to 1000
COc1ccc2oc(C(=O)c3cccnc3N3CC=CCC3)cc2c1 [Example 88]	100 to 1000	> 1000	100 to 1000	100 to 1000	100 to 1000	< 10	< 10	10 to 100	< 10	< 10	> 1000	10 to 100	10 to 100	10 to 100	10 to 100
COc1ccc2oc(C(=O)c3cccnc3N3CCCCC3C)cc2c1 (stereo not drawn) [Example 89]	100 to 1000	> 1000	100 to 1000	100 to 1000	100 to 1000	100 to 1000	100 to 1000	100 to 1000	10 to 100	10 to 100	> 1000	100 to 1000	100 to 1000	100 to 1000	100 to 1000
COc1ccc2oc(C(=O)c3cccnc3-n3ccnc3)cc2c1 [Example 90]	> 1000	> 1000	> 1000	> 1000	> 1000	> 1000	> 1000	> 1000	> 1000	> 1000	> 1000	> 1000	> 1000	> 1000	> 1000
COc1ccc2oc(C(=O)c3cccnc3N3CCCCC3)cc2c1 [Example 91]	100 to 1000	> 1000	100 to 1000	100 to 1000	100 to 1000	< 10	< 10	10 to 100	< 10	< 10	> 1000	10 to 100	10 to 100	10 to 100	10 to 100
COc1ccc2oc(C(=O)c3cccnc3N3CCCCC3)cc2c1 [Example 92]	> 1000	> 1000	> 1000	> 1000	> 1000	> 1000	> 1000	> 1000	> 1000	> 1000	> 1000	10 to 100	10 to 100	10 to 100	10 to 100
Nc1c(C(=O)c2cc(F)ccc2N2CCOCC2)oc2ccc(Cl)cc12 [Example 93]	10 to 100	> 1000	10 to 100	10 to 100	10 to 100	10 to 100	10 to 100	10 to 100	10 to 100	100 to 1000	> 1000	10 to 100	100 to 1000	10 to 100	100 to 1000
COc1ccc2oc(C(=O)c3cc(F)ccc3N3CCN(C)CC3)cc2c1 [Example 94]	> 1000	> 1000	> 1000	> 1000	100 to 1000	100 to 1000	100 to 1000	100 to 1000	100 to 1000	100 to 1000	> 1000	> 1000	100 to 1000	100 to 1000	> 1000
COc1ccc2oc(C(=O)c3cc(F)ccc3N3CCCCC3C)cc2c1 (stereo not drawn) [Example 97]	> 1000	> 1000	> 1000	> 1000	> 1000	100 to 1000	100 to 1000	> 1000	100 to 1000	100 to 1000	> 1000	> 1000	> 1000	> 1000	> 1000
COc1ccc2oc(C(=O)c3cc(F)ccc3N3CCCC(C)C3)cc2c1 (stereo not drawn) [Example 99]	> 1000	> 1000	100 to 1000	100 to 1000	100 to 1000	10 to 100	100 to 1000	100 to 1000	10 to 100	10 to 100	> 1000	100 to 1000	100 to 1000	100 to 1000	100 to 1000
